According to patent US12070462B2, “SETBP1 inhibitors for the treatment of myeloid neoplasms and solid tumors” (The Henry M. Jackson Foundation for the Advancement of …, priority 2018, dated 2024):

What was measured:
[1] = system: Hoxa9, Hoxa10 and Myb mRNA levels; assay: Real-time RT-PCR of Setbp1 target genes in Setbp1-immortalized cells; type: cell-based, mouse; conditions: for Setbp1 target transcription levels of Hoxa9, Hoxa10 and Myb: 12 hours post-treatment, 1 nM
Method: (§1) Cell Culture Studies of Immortalized Myeloid Progenitors. Mouse myeloid progenitors immortalized by 3×FLAG-tagged Setbp1 and Setbp1(D/N) were generated and maintained as previously described using pMYs-3×FLAG-Setbp1-IRES-GFP and pMYs-3×FLAG-Setbp1(D/N)-IRES-GFP viruses respectively (Oakley et al., Blood 119(25): 6099-6108 (2012). Lentiviral transduction of these immortalized cells was carried out by spinoculation in which a mixture of lentivirus and target cells was spun at 2000×g for 90 minutes at 37° C. Transduced cells were selected by treatment with puromycin (2 μg/ml) for 24 hours at 24 hours after lentiviral transduction. Colony formation assays for transduced cells were performed at 48 hours after infection using 1×10^4 puromycin-resistant cells on IMDM methylcellulose medium supplemented with 20% horse serum, mouse Scf (100 ng/ml) and II-3 (10 ng/ml), and puromycin (2 μg/ml) with colony numbers counted after 7 days. For studying effects of KPT-185 (Selleck Chemicals, Houston, TX) in liquid culture, immortalized cells were treated at 2.5×10^5 cells/ml concentration. Detection of apoptosis was performed using PE Annexin V Apoptosis Detection Kit (BD Biosciences). KPT-185 was directly added to methylcellulose medium for assessing its effects on colony formation by immortalized cells.
(§2) Real-Time RT-PCR. For real-time RT-PCR, total RNA was extracted from cells using Nucleospin RNA (Clontech, Duren, Germany). Oligo-dT-primed cDNA samples were prepared using Superscript III (Invitrogen), and real-time PCR analysis was performed in triplicates using SYBR green detection reagents (Invitrogen) on a QuantStudio real time PCR system (Applied Biosystems, Foster City, CA). Relative changes in expression were calculated according to the ΔΔCt method. The cycling conditions were 50° C. for 2 minutes followed by 95° C. for 2 minutes, and then 40 cycles of 95° C. for 15 seconds and 60° C. for 1 minute. […]

[2] = system: Setbp1-immortalized mouse myeloid progenitors; assay: Colony formation on methylcellulose by Setbp1-immortalized myeloid progenitors; type: cell-based; conditions: for colony formation: Setbp1-immortalized cells, 1 nM, 5 nM, 10 nM, and 100 nM
Method: (§3) In Vitro and In Vivo Testing of Compound (1AA). The activity of Compound 1AA against myeloid neoplasms was first determined in vitro by assessing its inhibitory effect on the colony formation by Setbp1/Setbp1(D/N)-immortalized mouse myeloid progenitors on IMDM methylcellulose medium with 20% horse serum plus mouse Scf (50 ng/ml) and Il-3 (10 ng/ml). The in vivo activity of Compound 1AA was evaluated by assessing its capability to reduce spleen size and to extend the survival of mice transplanted with Setbp1(D/N)-induced leukemia cells. For the generation of leukemic mice, 5×10^5 spleen cells from a primary recipient mouse with Setbp1(D/N)-induced leukemia were injected into the tail vein of each sublethally irradiated (550 rads from a ^137Cs source) B6-Ly5.2 female mouse. Starting from day 10 after transplantation, the recipient mice were treated with Compound (1AA) (33 mg/kg, dissolved in saline) or saline through five intra-peritoneal injections. The activity of Compound 1AA against solid tumors is determined by assessing its growth inhibitory effects on different human solid tumor cell lines in culture. Specifically, cellular ATP levels of liquid cultures of these cell lines are measured at 72 hours after treatment with serially diluted concentrations of Compound 1AA and compared to untreated cells.
(§4) Cell Culture Studies of Immortalized Myeloid Progenitors. […]

[3] = system: Setbp1(D/N)-immortalized myeloid progenitors; assay: Apoptosis (Annexin V) and differentiation/cytotoxicity (cytospin) in Setbp1(D/N)-immortalized cells; type: cell-based, mouse; conditions: for differentiation/cytotoxicity: Setbp1 (D/N)-immortalized cells, 100 nM
Method: as §1

[4] = system: Setbp1-immortalized myeloid progenitor cells; assay: Apoptosis (Annexin V) and differentiation/cytotoxicity (cytospin) in Setbp1-immortalized cells; type: cell-based, mouse; conditions: for differentiation/cytotoxicity: 100 nM
Method: as §1

[5] = system: Hoxa9, Hoxa10 and Myb mRNA levels; assay: Real-time RT-PCR of Setbp1(D/N) target genes in Setbp1(D/N)-immortalized cells; type: cell-based, mouse; conditions: for Setbp1 (D/N) target transcription levels of Hoxa9, Hoxa10 and Myb: Setbp1 (D/N)-immortalized cells, 12 hours post-treatment, 1 nM
Method: as §1, §2

[6] = system: Setbp1(D/N)-immortalized mouse myeloid progenitors; assay: Colony formation on methylcellulose by Setbp1(D/N)-immortalized myeloid progenitors; type: cell-based; conditions: for colony formation: Setbp1 (D/N)-immortalized cells, 1 nM
Method: as §3, §4

[7] = system: Setbp1(D/N)-induced leukemia; assay: Mice transplanted with Setbp1(D/N)-induced AML, treatment with KPT-330; type: in vivo, mouse
Method: Bone Marrow Transplantation and In Vivo Treatment with KPT-330. For generation of leukemic mice, 1×10^6 spleen cells from a primary recipient mouse with Setbp1(D/N)-induced leukemia were injected into the tail vein of each lethally irradiated (1100 rads from a ^137Cs source) B6-Ly5.2 female mouse along with 7.5×10^5 supporting bone marrow cells from un-irradiated B6-Ly5.2 mice. Starting from day 7 after transplantation, the recipient mice were treated with KPT-330 (20 mg/kg, dissolved in 2% DMSO/49% PEG300/ddH2O) or vehicle through oral gavage once every two days. KPT-330 was purchased from Selleck Chemicals.

[8] = system: Setbp1(D/N)-induced leukemia; assay: Mice transplanted with Setbp1(D/N)-induced AML, treatment with Compound (1AA); type: in vivo, mouse; conditions: 33 mg/kg, five intra-peritoneal injections from day 10 after transplantation, vs vehicle
Method: as §3

[9] = target: T1, interaction between Setbp1(D/N) and XPO1 (Mus musculus, UniProt Q9Z180, D859N); assay: Co-immunoprecipitation / Western blotting of nuclear extracts of transfected HEK293T cells; type: cell-based; conditions: 1 μM, 10 μM and 25 μM, 12 hours, M2 immunoprecipitates
T1 construct: expressed in transfected cells; host or cells: HEK293T
Method: Western blotting analyses using indicated specific antibodies were performed on M2 immunoprecipitates prepared from nuclear extracts of HEK293T cells transiently transfected with pMYs-3×FLAG-Setbp1-IRES-GFP and subsequently treated with different concentrations of Compound (1AA) and control DMSO for 12 hours.
Immunoprecipitation. HEK293T cells were transfected with the indicated expression constructs using LipoD293 (SignaGen Laboratories, Rockville, MD) and nuclear extracts were isolated 48 hours after transfection using the Nuclear Complex Co-IP kit (Active Motif, Carlsbad, CA). Nuclear lysates were incubated with either 4 μg of anti-Flag M2 (Sigma Aldrich, St. Louis, MO) or anti-XPO1 (NB100-79802, Novus Biological, Centennial, CO) for 4 hours at 4° C. Subsequently, Dynabeads protein A (Invitrogen, Carlsbad, CA) were added to the nuclear lysate/antibody mixture and incubated for an additional 2 hours at 4° C. Immunoprecipitated proteins were eluted and analyzed by Western blotting analysis. For immunoprecipitation experiments using in vitro transcribed and translated proteins, the corresponding cDNAs were cloned into pCMV-TNT and the TnT T7 Coupled Wheat Germ Extract (Promega, Madison, WI) system was used according to the manufacturer's instructions.
Western Blotting Analysis. […]

T1 sequence (Q9Z180 whole entry D859N): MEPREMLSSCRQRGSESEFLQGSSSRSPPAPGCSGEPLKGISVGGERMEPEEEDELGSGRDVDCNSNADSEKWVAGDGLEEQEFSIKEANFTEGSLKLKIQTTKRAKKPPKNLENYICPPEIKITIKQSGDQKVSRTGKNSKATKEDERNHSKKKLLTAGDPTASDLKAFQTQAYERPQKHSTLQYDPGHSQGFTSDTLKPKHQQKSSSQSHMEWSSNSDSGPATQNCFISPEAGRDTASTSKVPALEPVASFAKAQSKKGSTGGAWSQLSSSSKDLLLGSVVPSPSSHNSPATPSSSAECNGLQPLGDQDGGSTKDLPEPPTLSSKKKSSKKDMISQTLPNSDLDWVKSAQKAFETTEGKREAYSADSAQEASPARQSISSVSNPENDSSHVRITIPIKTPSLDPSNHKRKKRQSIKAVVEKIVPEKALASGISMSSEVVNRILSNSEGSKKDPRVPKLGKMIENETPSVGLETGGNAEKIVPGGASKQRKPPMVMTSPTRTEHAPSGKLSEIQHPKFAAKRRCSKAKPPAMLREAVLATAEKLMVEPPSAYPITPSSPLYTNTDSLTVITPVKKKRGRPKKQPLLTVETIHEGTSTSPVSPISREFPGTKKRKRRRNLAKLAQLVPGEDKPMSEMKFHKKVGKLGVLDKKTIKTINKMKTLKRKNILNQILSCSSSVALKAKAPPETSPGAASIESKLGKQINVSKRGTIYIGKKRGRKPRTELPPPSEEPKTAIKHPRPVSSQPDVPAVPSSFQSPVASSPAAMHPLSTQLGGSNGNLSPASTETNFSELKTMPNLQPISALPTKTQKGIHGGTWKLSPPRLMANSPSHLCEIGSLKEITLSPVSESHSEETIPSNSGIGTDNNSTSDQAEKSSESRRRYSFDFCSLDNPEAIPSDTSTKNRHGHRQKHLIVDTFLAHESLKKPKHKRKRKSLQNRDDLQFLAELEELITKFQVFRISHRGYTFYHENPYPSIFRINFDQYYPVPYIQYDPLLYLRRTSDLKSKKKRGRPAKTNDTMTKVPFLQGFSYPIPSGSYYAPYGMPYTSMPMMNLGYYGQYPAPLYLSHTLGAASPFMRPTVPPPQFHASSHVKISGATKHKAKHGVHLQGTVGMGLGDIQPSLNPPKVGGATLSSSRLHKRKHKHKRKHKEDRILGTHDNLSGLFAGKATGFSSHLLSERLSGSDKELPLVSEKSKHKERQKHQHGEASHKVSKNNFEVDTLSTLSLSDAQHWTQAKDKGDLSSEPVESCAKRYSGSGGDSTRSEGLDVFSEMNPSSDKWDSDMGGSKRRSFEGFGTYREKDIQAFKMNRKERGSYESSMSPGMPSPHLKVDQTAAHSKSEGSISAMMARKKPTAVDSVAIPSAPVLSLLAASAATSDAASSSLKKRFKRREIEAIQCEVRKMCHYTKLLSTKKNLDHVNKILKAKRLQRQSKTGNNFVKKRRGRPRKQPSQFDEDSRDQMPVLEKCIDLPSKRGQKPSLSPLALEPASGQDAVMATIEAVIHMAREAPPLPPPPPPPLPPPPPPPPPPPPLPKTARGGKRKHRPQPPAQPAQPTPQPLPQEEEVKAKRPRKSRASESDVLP

COc1cc(-c2ncn(/C=C\C(=O)OC(C)C)n2)cc(C(F)(F)F)c1 [KPT-185, reference compound]
Hoxa9/Hoxa10/Myb mRNA levels ([1]; 300 nM, 2.5 hours after treatment, vs DMSO): significantly down-regulated | relative colony-forming potential ([2]; Setbp1-immortalized myeloid progenitors, indicated concentrations, vs DMSO): significantly reduces colony-forming potential | apoptosis (Annexin V staining) ([3]; Setbp1(D/N)-immortalized cells, 48 hours after treatment, vs DMSO): induces apoptosis | differentiation (cytospin) ([3]; Setbp1(D/N)-immortalized cells, 72 hours after treatment): induces apoptosis and differentiation | apoptosis (Annexin V staining) ([4]; 48 hours after treatment, vs DMSO): induces apoptosis | differentiation: number of mature neutrophils (cytospin) ([4]; 72 hours after treatment): significantly increase | Hoxa9/Hoxa10/Myb mRNA levels ([5]; Setbp1(D/N)-immortalized cells, 300 nM, 2.5 hours after treatment, vs DMSO): significantly down-regulated | relative colony-forming potential ([6]; Setbp1(D/N)-immortalized myeloid progenitors, indicated concentrations, vs DMSO): significantly reduces colony-forming potential

O=C(/C=C\n1cnc(-c2cc(C(F)(F)F)cc(C(F)(F)F)c2)n1)NNc1cnccn1 [KPT-330]
extension of survival time ([7]; 20 mg/kg oral gavage every 2 days from day 7, vehicle mice moribund in 17 days): ≤ 50% | survival of transplanted mice ([7]; 20 mg/kg oral gavage every 2 days from day 7 after transplantation, vs vehicle, p=0.012, Log-rank test): prolonged the survival

Nc1ccc(Cn2ccc3c4c(N)nc(N)nc4ccc32)cc1 [Compound (2AA)]
Setbp1 target transcription levels of Hoxa9, Hoxa10 and Myb ([1]; 50 nM, 100 nM and 300 nM): reduces Setbp1 target transcription levels | colony formation [2]: inhibits colony formation | differentiation/cytotoxicity [3]: induces differentiation/cytotoxicity | differentiation/cytotoxicity [4]: induces differentiation/cytotoxicity | Setbp1 (D/N) target transcription levels of Hoxa9, Hoxa10 and Myb ([5]; 50 nM, 100 nM and 300 nM): reduces Setbp1 (D/N) target transcription levels | colony formation ([6]; 10 nM, 50 nM, 100 nM, 300 nM and 500 nM): inhibits colony formation

Cc1c2cc[n+](CCN3CCCCC3)cc2c(C)c2c1[nH]c1ccc(O)cc12.[Br-] [Compound (1AA)]
Setbp1 target transcription levels of Hoxa9, Hoxa10 and Myb ([1]; 10 nM, 100 nM and 500 nM): reduces Setbp1 target transcription levels | spleen size (spleen weights when moribund) [8]: reduced the spleen size | survival of leukemic mice ([8]; p=0.0034, Log-rank test): significantly extended the survival | colony formation [2]: inhibits colony formation | differentiation/cytotoxicity [3]: induces differentiation/cytotoxicity | differentiation/cytotoxicity [4]: induces differentiation/cytotoxicity | Setbp1 (D/N) target transcription levels of Hoxa9, Hoxa10 and Myb ([5]; 10 nM, 100 nM and 500 nM): reduces Setbp1 (D/N) target transcription levels | interaction between Setbp1(D/N) and XPO1 [9]: disrupts the interaction | colony formation ([6]; 5 nM, 10 nM, and 100 nM): inhibits colony formation
